# Values quoted from earlier work, collected in patent US20240268433A1, “Nutritional Compositions for Preserving Muscle Mass” (Dutch Medical Food B.V., priority 2021, published 2024).
# Legend:
# [1] = tested on: elderly adults exposed to bedrest; conditions: bed rest induced muscle atrophy
# [2] = tested on: female individuals that complain about their sleep quality
# [3] = tested on: adults between the age of 25 and 59 years
# GABAA receptor = conditions: chicken; administered with serine
molecule,measurement,setting,value
"CC(C)(O)CC(=O)O [HMB, Beta-hydroxy beta-methylbutyrate]",derangements in skeletal muscle metabolism and mitochondria,[1],able to attenuate and prevent derangements in skeletal muscle metabolism and mitochondria
NCC(=O)O [glycine],daytime sleepiness,[2]; especially in the morning,positive effect
same,subjective quality of sleep,[2]; ingestion prior to sleep,beneficial effect on the subjective quality of sleep
N[C@@H](CO)C(=O)O [serine],resistance or rebound insomnia after discontinuation of ingestion,[3]; after discontinuation of ingestion,did not appear to suffer from resistance or occurrence of rebound insomnia
same,"quality of sleep (sleep initiation, nighttime awakenings)",[3]; ingestion about 30 minutes before going to sleep,beneficial effect on the quality of sleep
picrotoxin,effect on sedative and hypnotic effect of serine,GABAA receptor,attenuated the sedative and hypnotic effect of serine
